Results reported in patent US12371454B2, “Cyclic peptide compound having Kras inhibitory action” (priority 2019, dated 2025).
Starred links: 1 amine or outer side, 2 acyl side, 3 side chain; linkers in the order of their positions; H or OH if unused. Positions of bridges follow the written chain, without caps; N, C: chain ends. Non-standard residues stand in square brackets, D forms with d. Residues, ends and D or L forms follow the SMILES beside them. *: point of attachment. hPhe(3-Cl-4-CF3) = N[C@@H](CCc1ccc(C(F)(F)F)c(Cl)c1)C(=O)O; hPhe(4-CF3) = N[C@@H](CCc1ccc(C(F)(F)F)cc1)C(=O)O; 3Oxa8azabicyclo(3.2.1)octane = C1CC2COCC1N2*; hPhe(4-Cl) = N[C@@H](CCc1ccc(Cl)cc1)C(=O)O; NMedβ3hAla = C[C@H](CC(=O)[*:2])N(C)[*:1]; NMeAla(cPent) = CN[C@@H](CC1CCCC1)C(=O)O; NMeY = CN[C@@H](Cc1ccc(O)cc1)C(=O)O; NMeCha = CN[C@@H](CC1CCCCC1)C(=O)O; NMeChg = CN[C@H](C(=O)O)C1CCCCC1; NMeI = CC[C@H](C)[C@H](NC)C(=O)O; NMeD = CN[C@@H](CC(=O)O)C(=O)O; NMeL = CN[C@@H](CC(C)C)C(=O)O; NMeV = CN[C@H](C(=O)O)C(C)C; NMeAbu = CC[C@H](NC)C(=O)O; NMeS = CN[C@@H](CO)C(=O)O; NMeA = CN[C@@H](C)C(=O)O; Piperidide = C1CCN(*)CC1; Ac5c = NC1(C(=O)O)CCCC1; X14 = CC1(C)CCN(*)C1; Sar = CNCC(=O)O

How the values were obtained:
[1] = target: T1, Kras and SOS1 (biotin-tagged human Kras loaded with GDP, His-tagged human SOS1) (Homo sapiens, UniProt P01116, G12D); assay: Protein-protein interaction inhibition between Kras and SOS1 (KrasGl2D-SOS PPI) using AlphaScreen; format: binding; settings: AlphaScreen; biotin-tagged human Kras loaded with GDP, His-tagged human SOS1; read-out: KRAS G12D-SOS PPI IC50
T1 construct: made in house; host or cells: E. coli (stated for Kras only)
T1 sequence (P01116 1-188 isoform P01116-2 G12D): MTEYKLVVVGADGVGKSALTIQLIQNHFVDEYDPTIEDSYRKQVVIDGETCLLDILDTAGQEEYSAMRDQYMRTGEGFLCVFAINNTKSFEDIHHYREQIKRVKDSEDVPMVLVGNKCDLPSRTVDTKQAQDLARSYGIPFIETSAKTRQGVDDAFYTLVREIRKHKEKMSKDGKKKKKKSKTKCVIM
Method in brief: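 Energy transfer from nickel-chelate donor beads bound to His-SOS1 to streptavidin acceptor beads bound to biotin-Kras, expressed in E. coli and loaded with GDP after purification, was monitored. Donors were excited at 680 nm; singlet oxygen reaching acceptors gave emission read at 520-620 nm.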

[2] = test system: Human pancreatic cancer cell line AsPC-1; assay: Measurement of AsPC-1 cell growth inhibition (AsPC-1 CGI); format: cell-based; settings: 96 h
Method in brief: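 AsPC-1 cells in 15% FBS RPMI-1640 were exposed to test compound for 96 hours at 37° C, with CellTiter-Glo as endpoint.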

| Structure (SMILES) | IC50 [1] | IC50 [2] |
| --- | --- | --- |
| CC[C@H](C)[C@@H]1NC(=O)[C@H](C)N(C)C(=O)C[C@@H](C(=O)N2CCCCC2)N(C)C(=O)[C@H](C2CCCCC2)N(C)C(=O)C2(CCCC2)NC(=O)[C@@H]2CCCN2C(=O)[C@H](CCc2ccc(Cl)cc2)NC(=O)CN(C)C(=O)[C@H](CC2CCCCC2)N(C)C(=O)CN(C)C(=O)CN(C)C1=O [Compound 292] ([NMeA]I[Sar][Sar][NMeCha][Sar][hPhe(4-Cl)]P[Ac5c][NMeChg][NMeD]-Piperidide; lactam N-11) | 0.45 nM | 50 to 100 nM |
| CC[C@H](C)[C@@H]1NC(=O)[C@H](CC(C)C)N(C)C(=O)C[C@@H](C(=O)N2CCCCC2)N(C)C(=O)[C@H](C(C)C)N(C)C(=O)C2(CCCC2)NC(=O)[C@@H]2CCCN2C(=O)[C@H](CCc2ccc(C(F)(F)F)c(Cl)c2)NC(=O)CN(C)C(=O)[C@H](CC2CCCCC2)N(C)C(=O)CN(C)C(=O)CN(C)C1=O [Compound 438] ([NMeL]I[Sar][Sar][NMeCha][Sar][hPhe(3-Cl-4-CF3)]P[Ac5c][NMeV][NMeD]-Piperidide; lactam N-11) | 6 nM | 50 to 100 nM |
| CC[C@H](C)[C@@H]1NC(=O)[C@H](CC)N(C)C(=O)C[C@@H](C(=O)N2C3CCC2COC3)N(C)C(=O)[C@H](C2CCCCC2)N(C)C(=O)C2(CCCC2)NC(=O)[C@@H]2CCCN2C(=O)[C@H](CCc2ccc(C(F)(F)F)c(Cl)c2)NC(=O)CN(C)C(=O)[C@H](CC2CCCC2)N(C)C(=O)CN(C)C(=O)CN(C)C1=O [Compound 1877] ([NMeAbu]I[Sar][Sar][NMeAla(cPent)][Sar][hPhe(3-Cl-4-CF3)]P[Ac5c][NMeChg][NMeD]-{3Oxa8azabicyclo(3.2.1)octane}; lactam N-11) | 0.86 nM | 100 to 500 nM |
| CC[C@H](C)[C@@H]1NC(=O)[C@H](COC)N(C)C(=O)C[C@@H](C(=O)N2CCCCC2)N(C)C(=O)[C@H](C2CCCCC2)N(C)C(=O)C2(CCCC2)NC(=O)[C@@H]2CCCN2C(=O)[C@H](CCc2ccc(C(F)(F)F)c(Cl)c2)NC(=O)CN(C)C(=O)[C@H](CC2CCCCC2)N(C)C(=O)CN(C)C(=O)CN(C)C1=O [Compound 1037] ([NMeS](Me)I[Sar][Sar][NMeCha][Sar][hPhe(3-Cl-4-CF3)]P[Ac5c][NMeChg][NMeD]-Piperidide; lactam N-11) | 0.66 nM | 50 to 100 nM |
| CC[C@H](C)[C@@H]1NC(=O)[C@H](CC)N(C)C(=O)C[C@@H](C(=O)N2CCCCC2)N(C)C(=O)[C@H](C2CCCCC2)N(C)C(=O)C2(CCCC2)NC(=O)[C@@H]2CCCN2C(=O)[C@H](CCc2ccc(C(F)(F)F)c(Cl)c2)NC(=O)CN(C)C(=O)[C@H](CC2CCCCC2)N(C)C(=O)CN(C)C(=O)CN(C)C1=O [Compound 1770] ([NMeAbu]I[Sar][Sar][NMeCha][Sar][hPhe(3-Cl-4-CF3)]P[Ac5c][NMeChg][NMeD]-Piperidide; lactam N-11) | 0.71 nM | 50 to 100 nM |
| CC[C@H](C)[C@@H]1NC(=O)[C@H](C)N(C)C(=O)C[C@@H](C(=O)N2CCCCC2)N(C)C(=O)[C@H](C2CCCCC2)N(C)C(=O)C2(CCCC2)NC(=O)[C@@H]2CCCN2C(=O)[C@H](CCc2ccc(C(F)(F)F)cc2)NC(=O)CN(C)C(=O)[C@H](CC2CCCCC2)N(C)C(=O)CN(C)C(=O)CN(C)C1=O [Compound 72] ([NMeA]I[Sar][Sar][NMeCha][Sar][hPhe(4-CF3)]P[Ac5c][NMeChg][NMeD]-Piperidide; lactam N-11) | 0.47 nM | 100 to 500 nM |
| CC[C@H](C)[C@@H]1NC(=O)[C@H](CC(C)C)N(C)C(=O)C[C@@H](C(=O)N2CCC(C)(C)C2)NC(=O)[C@H]([C@@H](C)CC)N(C)C(=O)C2(CCCC2)NC(=O)[C@@H]2CCCN2C(=O)[C@H](CCc2ccc(C(F)(F)F)c(Cl)c2)NC(=O)CN(C)C(=O)[C@H](CC2CCCCC2)N(C)C(=O)CN(C)C(=O)CN(C)C1=O [Compound 1273] ([NMeL]I[Sar][Sar][NMeCha][Sar][hPhe(3-Cl-4-CF3)]P[Ac5c][NMeI]D-X14; lactam N-11) | 7.2 nM | 100 to 500 nM |
| CC[C@H](C)[C@@H]1NC(=O)[C@H](CC(C)C)N(C)C(=O)C[C@@H](C)N(C)C(=O)[C@H](C(C)C)N(C)C(=O)C2(CCCC2)NC(=O)[C@@H]2CCCN2C(=O)[C@H](CCc2ccc(C(F)(F)F)c(Cl)c2)NC(=O)CN(C)C(=O)[C@H](Cc2ccc(OC)cc2)N(C)C(=O)CN(C)C(=O)CN(C)C1=O [Compound 1551] (cyclo([Ac5c][NMeV][NMedβ3hAla][NMeL]I[Sar][Sar][NMeY](Me)[Sar][hPhe(3-Cl-4-CF3)]P)) | 4.9 nM | 50 to 100 nM |
